Reference: patent US20130283403A1, “ZEBRAFISH SEIZURE MODEL, METHOD FOR ES[…] SAME, AND METHOD FOR SCREENING ANT[…] USING THE SAME” (NATIONAL CHENG KUNG UNIVERSITY, priority 2012, published 2013)

What was measured:
[1] = tested on: ginkgotoxin-induced zebrafish seizure model; assay: Screening for drugs using the ginkgotoxin-induced zebrafish seizure model; format: in vivo, zebrafish (Dania rerio, AB strain); conditions: for rescuing effect: zebrafish at six hours post fertilization treated for 3 days, FIGS. 4A and 4B
Procedure: (§1) A solution of the ginkgotoxin is stored below −20° C. The ginkgotoxin concentrate of 40 mM is added to a fish water to keep the concentrations between 0.2 mM and 1 mM while the zebrafish seizure model is induced. The zebrafish is incubated in the fish water without ginkgotoxin for the control group.
(§2) Pyridoxal-5′-phosphate and GABA stock solution of 40 mM are used when measuring the response of zebrafish embryos seizure model with respect to effects of ant-convulsant drugs. Anticonvulsant drugs, such as gabapentin, phenyloin, and primidone, are dissolved in DMSO to make 100 mM concentration. During experiments, anticonvulsant drugs and ginkgotoxin are added to the fish water simultaneously, or the anticonvulsant drugs are added to the fish water three hours before the zebrafish behaviors are recorded and analyzed. This will be described in detail in the following.
(§3) The swimming behavior of zebrafish were was observed directly by naked eyes to determine the test results, and a quantified standard is made by a swimming distance and velocity of the zebrafish. At least 10 zebrafish were used for each group.
(§4) Besides, the zebrafish embryos are placed in 200 μl fish water in a concave on microscope slide. Herein, the zebrafish embryos are observed and recorded under a high-resolution dissecting microscope (Panasonic Digital video camera, DMC-FX55GT). Further, each condition, such as the swimming distance and velocity, of zebrafish are analyzed and quantified by a locomotion tracking system (EthoVision XT8.0 locomotion tracking system® (Noldus Information Technology, Inc., Leesburg, Va., USA)). The zebrafish is incubated in the fish water without ginkgotoxin for the control group.
Herein, GABA, PLP, gabapentin and phenyloin are used to perform experiments. The zebrafish embryos are incubated in fish water without ginkgotoxin represented as a “control group”; the zebrafish embryos are treated with ginkgotoxin represented as “GT”; the zebrafish embryos are treated simultaneously with ginkgotoxin and PLP of 0.5 mM represented as “GT+PLP”; the zebrafish embryos are treated simultaneously with ginkgotoxin and GABA of 0.5 mM represented as “GT+GABA”; the zebrafish embryos are treated simultaneously with ginkgotoxin and gabapentin of 1 mM represented as “GT+gabapentin”; the zebrafish embryos are treated simultaneously with ginkgotoxin and phenyloin of 1 mM represented as “GT+phenyloin”. The results are shown in FIGS. 2A to 4B, wherein, FIG. 2A and FIG. 2B are results showing that zebrafish at 3 days post fertilization of the example are treated for 2 hours; FIG. 3A and FIG. 3B are results showing that zebrafish at 5 days post fertilization of the example are treated for 2 hours; FIG. 4A and FIG. 4B are results that zebrafish at 6 hours post fertilization of the example were treated for 3 days. These indicate aggrevated seizure and convulsion when the swimming distance is longer and swimming velocity is faster transitorily.
Here, a comparison between the zebrafish seizure model induced by PTZ and one induced by ginkgotoxin is drawn. Wherein, the zebrafish embryos incubated in fish water without ginkgotoxin represented as a “control group”; the zebrafish embryos only treated with ginkgotoxin represented as “GT”; the zebrafish embryos treated only with PTZ of 0.5 mM represented as “PTZ”; the zebrafish embryos treated simultaneously with ginkgotoxin and DMSO represented as “GT+DMSO”; the zebrafish embryos treated simultaneously with PTZ and DMSO represented as “PTZ+DMSO”; the zebrafish embryos treated simultaneously with ginkgotoxin and gabapentin of 2 mM represented as “GT+gabapentin”; the zebrafish embryos treated simultaneously with PTZ and phenyloin of 2 mM represented as “PTZ+phenyloin”; the zebrafish embryos treated simultaneously with GT and folic acid of 1 mM represented as […]; the zebrafish embryos treated simultaneously with PTZ and folic acid of 1 mM is indicated as “PTZ+folic acid”. […]

zebrafish larvae = assay: Establishing the zebrafish seizure model with ginkgotoxin; format: in vivo, zebrafish (Dania rerio, AB strain)
Procedure: as §1, §3, §4
To induce seizures, the zebrafish larvae at 5 days post fertilization (5-dpf) are placed in fish water containing ginkgotoxin of various concentrations (0.2 mM to 1 mM) and ecorded and analyzed 2 hours later. […]

[2] = tested on: PTZ-induced zebrafish seizure model; conditions: current experimental data; cited from earlier work
[3] = tested on: PTZ-induced zebrafish seizure model; assay: Zebrafish seizure model induced by PTZ; format: in vivo, zebrafish (Dania rerio, AB strain); conditions: model induced by PTZ 0.5 mM, FIGS. 5A and 5B
Procedure: as §2, §3
as §4, with “group. […]” for “group.”

[4] = 0.5 mM added simultaneously with ginkgotoxin 0.5 mM, FIGS. 2A to 4B
[5] = 1 mM added simultaneously with ginkgotoxin 0.5 mM, regardless of embryonic stage, FIGS. 2A to 4B

SMILES | conditions of seizure and convulsion (swimming distance and velocity) [1, 4] | rescuing effect ([1]; 0.5 mM with ginkgotoxin) | conditions of seizure and convulsion (swimming distance and velocity) [1, 5] | rescuing effect ([1]; 1 mM with ginkgotoxin) | also measured
NCCCC(=O)O [GABA, gamma-aminobutyric acid] | alleviated with a greater extent | most obvious signs of rescuing effect | – | – | –
Cc1ncc(COP(=O)(O)O)c(C=O)c1O [PLP, Pyridoxal-5′-phosphate] | alleviated with a greater extent | most obvious signs of rescuing effect | – | – | –
NCC1(CC(=O)O)CCCCC1 [gabapentin] | – | – | alleviated with greater extent | most obvious signs of rescuing effect | –
COCc1c(CO)cnc(C)c1O [ginkgotoxin, 4-O-methylpyridoxine] | – | – | – | – | state of zebrafish treated with ginkgotoxin (swimming distance and velocity) ([1]; 0.5 mM, 3 dpf or 5 dpf treated 2 hours, 6 hpf treated 3 days, FIGS. 2A to 4B): states of seizure or convulsion; lower dose at which the zebrafish seizure model can be established (zebrafish larvae; 5-dpf larvae, after incubating for 2 hours, FIG. 1B): 0.2 mM; concentration at which the zebrafish seizure model can be established steadily (zebrafish larvae; zebrafish larvae at 5 days post fertilization, in fish water, FIGS. 1A and 1B): 500 µM
O=C1NC(=O)C(c2ccccc2)(c2ccccc2)N1 [phenyloin] | – | – | alleviated with greater extent | most obvious signs of rescuing effect | –
CCC1(c2ccccc2)C(=O)NCNC1=O [primidone] | – | – | – | – | response of the PTZ-induced seizure model to the drug [2]: does not respond; detection as antiepileptic or anti-convulsion drug (seizure stage 0/I/II) ([1]; model induced by ginkgotoxin, FIGS. 5A and 5B): enable to screen out; detection as antiepileptic or anti-convulsion drug (seizure stage 0/I/II) [3]: could not be accomplished
